Results: publication PMC6592895, “Unusual Flavones from Primula macrocalyx as Inhibitors of OAT1 and OAT3 and as Antifungal Agents against Candida rugosa” (Scientific Reports, 2019)
Converted amounts (≈) assume the structure as drawn. Read-outs that look alike come from different tables or passages of the source.

Tests used:
OAT3 [1] = target: T1, OAT3 (Homo sapiens, UniProt Q8TCC7); experiment: 6-CF uptake assay in HEK-OAT3 cells
T1 sequence (Q8TCC7 1-542): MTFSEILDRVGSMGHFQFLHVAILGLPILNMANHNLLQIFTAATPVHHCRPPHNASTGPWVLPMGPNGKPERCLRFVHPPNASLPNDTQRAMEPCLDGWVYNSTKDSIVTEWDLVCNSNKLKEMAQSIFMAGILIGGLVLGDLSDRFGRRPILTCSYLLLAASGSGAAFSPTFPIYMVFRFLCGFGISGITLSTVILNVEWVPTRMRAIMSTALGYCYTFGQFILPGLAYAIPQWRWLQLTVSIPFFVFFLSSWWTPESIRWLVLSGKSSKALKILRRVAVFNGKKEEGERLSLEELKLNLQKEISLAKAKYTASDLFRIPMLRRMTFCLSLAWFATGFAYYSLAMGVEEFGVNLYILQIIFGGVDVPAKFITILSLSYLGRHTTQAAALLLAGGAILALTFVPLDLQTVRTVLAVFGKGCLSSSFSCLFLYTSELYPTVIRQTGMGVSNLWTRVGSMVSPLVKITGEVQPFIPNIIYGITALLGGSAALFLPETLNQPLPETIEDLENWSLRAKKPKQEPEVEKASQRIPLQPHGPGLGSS
Method: (§1) The interactions of 12 flavones with the uptake of 6-CF in HEK-OAT1 and HEK-OAT3 cells were evaluated. This cell uptake assay was performed as previously described[14],[35]. A density of 5 × 10^4 cells were seeded per well in 96-well culture plates precoated with poly-D-lysine. […] Uptake was terminated by adding 100 µL ice-cold uptake buffer, and quickly washing the cells in each well three times with ice-cold phosphate-buffered saline (PBS). The cells were lysed with 100 µL of 20 mM Tris-HCl containing 0.2% TritonX-100. […] The protein content of the cell lysate was quantified using a BCA Protein Assay Kit. The intensity of fluorescence was standardized against total protein content, and measured in triplicate. The stock solutions of tested compounds were dissolved in DMSO with a final concentration of 50 mM and dilutions were made using uptake buffer.
(§2) For the uptake experiments, data were analyzed with a two-tailed unpaired Student’s t-test.

OAT1 [2] = target: T2, OAT1 (Homo sapiens, UniProt Q4U2R8); experiment: 6-CF uptake assay in HEK-OAT1 cells; conditions: for inhibition at 5 min, 50 µM: human, HEK293 cells stably overexpressing OAT1 (HEK-OAT1), pH 7.2, probe 6-CF (4 µM)
T2 sequence (Q4U2R8 1-563): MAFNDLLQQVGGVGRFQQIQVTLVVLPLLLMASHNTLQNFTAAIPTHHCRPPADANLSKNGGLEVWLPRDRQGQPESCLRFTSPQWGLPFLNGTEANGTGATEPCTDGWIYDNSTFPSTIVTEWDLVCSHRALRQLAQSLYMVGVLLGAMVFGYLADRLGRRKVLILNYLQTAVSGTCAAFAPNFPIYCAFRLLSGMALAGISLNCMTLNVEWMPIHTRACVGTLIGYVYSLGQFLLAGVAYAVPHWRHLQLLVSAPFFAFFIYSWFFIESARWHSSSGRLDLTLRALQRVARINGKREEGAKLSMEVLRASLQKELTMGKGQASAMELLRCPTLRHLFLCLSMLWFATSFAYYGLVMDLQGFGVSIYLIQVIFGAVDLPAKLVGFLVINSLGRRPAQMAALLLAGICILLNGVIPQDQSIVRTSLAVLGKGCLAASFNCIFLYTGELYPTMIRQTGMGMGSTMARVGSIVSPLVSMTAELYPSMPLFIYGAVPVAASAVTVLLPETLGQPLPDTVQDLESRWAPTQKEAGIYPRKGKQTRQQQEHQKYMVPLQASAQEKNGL
Method: as §1, §2

[3] = system: Candida rugosa (ATCC 10571); experiment: Broth microdilution antifungal assay; assay type: cell-based; conditions: YM broth, 25 °C, read-out: MICs C. rugosa
Method: Antifungal activity against C. rugosa (ATCC 10571) was measured as previously described using a broth microdilution method[36]–[38] with minor modifications. The assay was performed in sterile 96-well microtiter plates. Briefly, YM broth was prepared and autoclaved for 20 min at 121 °C, then allowed to cool to room temperature (25 °C). C. rugosa was dispersed in YM broth to an optical density of 1 UA at 600 nm (approximately 1 × 10^7 cfu/mL) using uninoculated broth as the blank. A 198 µL aliquot of the resulting fungal suspension was dispensed into each well of a 96-well plate. Stock solutions of the twelve compounds were prepared in DMSO at a concentration of 50 mM. The stock solutions were diluted to a range of final concentrations (500–0.14 µM) in YM broth such that the final DMSO concentration was no higher than 1%, v/v. A 2 µL aliquot of the resulting test samples was transferred to each well of the plate. Plates were incubated at 25 °C for 24 h prior to measurement of the optical density of each well at 600 nm. […] Amphotericin B was used as positive control.

OAT3 [4] = system: OAT3; parameters: method as in PMID 30248705; conditions: previous study; cited from earlier work
OAT1 [5] = system: OAT1; parameters: method as in PMID 30248705; conditions: previous study; cited from earlier work
Candida rugosa = experiment: Agar well diffusion antimicrobial assay; assay type: cell-based; conditions: Diutina rugosa, fraction at 1 mg/mL in DMSO, read-out: diameter zone of inhibition
Method: Approximately 15 mL aliquots of each medium were dispensed into petri plates and allowed to solidify, then incubated for 24 h to ensure sterility prior to use. Microbial suspensions (0.5 mL) at a density of 5 × 10^6 cfu/mL were inoculated onto the sterile media and allowed to stand for 10–20 min before wells were cut into the agar using a sterile pipet tip. A 10 µL aliquot of a DMSO solution of plant extracts (1 mg/mL) or fractions (2, 0.2, 0.02 mg/mL) were pipetted into each well. Similarly, 10 µL portions of DMSO and a solution of an appropriate antibiotic standard were applied to each plate as negative and positive controls, respectively. All treated plates were incubated for 24 h in incubators at appropriate temperatures. Zones of inhibition were measured in millimeters. The assays were performed in triplicate.

OAT3 [6] = conditions: cited from earlier work
OAT3 [7] = conditions: read-out: IC50 OAT3; biflavonoids from Juniperus oblonga; cited from earlier work
OAT1 [8] = conditions: cited from earlier work
Oat3 [9] = conditions: rat, in vivo, po; cited from earlier work
OAT1 [10] = conditions: cited from earlier work; remark: listed apart in the source
OAT1 [11] = conditions: read-out: IC50 OAT1; assay similar to that used in this study; cited from earlier work
[12] = Diutina rugosa, ATCC10571, 24 h

Structure (SMILES) | IC50 (OAT3 [1]) [µM] | IC50 (OAT1 [2]) [µM] | MIC [3, 12] [µM] | further results
COc1ccc(OC)c(-c2cc(=O)c3ccccc3o2)c1 [Compound 4, 2′,5′-dimethoxyflavone] | 12.1 | 32.9 | > 500 | –
COc1ccc2c(=O)cc(-c3ccccc3)oc2c1 [7-methoxyflavone] | – | – | – | IC50 (OAT3 [4]): 5.8 µM; IC50 (OAT1 [5]): 3.6 µM
COc1ccccc1-c1cc(=O)c2c(OC)c(OC)ccc2o1 [Compound 12, 5,6,2′-trimethoxyflavone] | 2.9 | 9.6 | < 2 | MIC ([3]; 24 h): 2.0 µM (≈ 0.625 µg/mL)
COc1ccc(O)cc1-c1cc(=O)c2ccccc2o1 [Compound 5, 2′-methoxy-5′-hydroxyflavone] | 27.3 | 26.9 | > 500 | –
C[C@@H]1[C@H](O)[C@@H](C)/C=C/C=C/C=C/C=C/C=C/C=C/C=C/[C@H](O[C@@H]2O[C@H](C)[C@@H](O)[C@H](N)[C@@H]2O)C[C@@H]2O[C@](O)(C[C@@H](O)C[C@@H](O)[C@H](O)CC[C@@H](O)C[C@@H](O)CC(=O)O[C@H]1C)C[C@H](O)[C@H]2C(=O)O [Amphotericin B, reference compound] | – | – | 0.4 (≈ 0.37 µg/mL) | zone of inhibition at 1000 µg/mL (Candida rugosa): 11 mm
COc1cccc(OC)c1-c1cc(=O)c2c(OC)c(OC)cc(OC)c2o1 [Compound 11, 5,6,8,2′,6′-pentamethoxyflavone] | 10.9 | – | > 500 | inhibition at 5 min, 50 µM (OAT1 [2]): < 70%
O=c1cc(-c2ccccc2)oc2cc(O)c(O)c(O)c12 [baicalein] | – | – | – | IC50 (OAT3 [6]): 2.4 µM
COc1ccc(-c2cc(=O)c3c(O)cc(O)c(-c4cc(-c5cc(=O)c6c(O)cc(O)cc6o5)ccc4O)c3o2)cc1 [podocarpusflavone A] | – | – | – | IC50 (OAT3 [7]): 3.8 µM
O=c1cc(-c2ccc(O)cc2)oc2cc(O)cc(O)c12 [Apigenin] | – | – | – | IC50 (OAT1 [8]): 0.737 µM
O=c1cc(-c2ccc(O)c(-c3c(O)cc(O)c4c(=O)cc(-c5ccc(O)cc5)oc34)c2)oc2cc(O)cc(O)c12 [amentoflavone] | – | – | – | effect on pharmacokinetic parameters of furosemide (substrate of Oat3) (Oat3 [9]): markedly altered; IC50 (OAT3 [7]): 2 µM
COc1ccc(OC)c(-c2cc(=O)c3c(OC)c(OC)ccc3o2)c1OC [Compound 8, 5,6,2′,3′,6′-pentamethoxyflavone] | 7.4 | 10 | < 2 | MIC ([3]; 24 h): 1.2 µM (≈ 0.447 µg/mL)
COc1ccccc1-c1cc(=O)c2ccccc2o1 [Compound 3, 2′-methoxyflavone] | 6.3 | 2.9 | > 500 | –
COc1cc2c(=O)c(-c3ccccc3O)coc2c(OC)c1O [7,2′-dihydroxy-6,8-dimethoxyisoflavone] | – | – | – | IC50 (OAT3 [4]): 5.6 µM
O=c1cc(-c2ccccc2O)oc2ccccc12 [Compound 10, 2′-hydroxyflavone] | 18.8 | – | > 500 | inhibition at 5 min, 50 µM (OAT1 [2]): < 70%
COc1c(O)cc2c(=O)c(-c3ccccc3O)coc2c1OC [6,2′-dihydroxy-7,8-dimethoxyisoflavone] | – | – | – | IC50 (OAT3 [4]): 17.9 µM
O=c1cc(-c2ccc(O)cc2)oc2c(-c3c(O)cc(O)c4c(=O)cc(-c5ccc(O)cc5)oc34)c(O)cc(O)c12 [cupressuflavone] | – | – | – | IC50 (OAT3 [7]): > 50 µM
O=c1c(O)c(-c2ccc(O)cc2O)oc2cc(O)cc(O)c12 [Morin] | – | – | – | IC50 (OAT1 [10]; read-out: IC50 OAT1, PAH uptake assay in LLC-PK1 cells): < 0.3 µM
COc1c(O)cc(O)c2c(=O)cc(-c3ccccc3)oc12 [Wogonin] | – | – | – | IC50 (OAT3 [6]; read-out: IC50 OAT3, assay similar to that used in this study): 1.3 µM; IC50 (OAT1 [11]): 5.4 µM
O=c1cc(-c2cccc(O)c2)oc2ccccc12 [Compound 9, 3′-hydroxyflavone] | 8 | 11.4 | > 500 | –
O=c1cc(-c2ccccc2)oc2ccccc12 [Compound 2, flavone] | 4.6 | 9.4 | 500 (≈ 111 µg/mL) | –
COc1cc(-c2cc(=O)c3ccccc3o2)cc(O)c1OC [Compound 6, 3′-hydroxy-4′,5′-dimethoxyflavone] | 5.1 | 3.2 | > 500 | –
COc1cc2c(=O)c(-c3ccccc3O)coc2c(OC)c1OC [2′-hydroxy-6,7,8-trimethoxyisoflavone] | – | – | – | IC50 (OAT3 [4]): 8.7 µM; IC50 (OAT1 [5]): 9.1 µM
O=c1cc(-c2ccc(O)c(O)c2)oc2cc(O)cc(O)c12 [luteolin] | – | – | – | IC50 (OAT1 [10]): 0.47 µM
COc1cccc(-c2cc(=O)c3ccccc3o2)c1 [Compound 1, 3′-methoxyflavone] | – | – | > 500 | inhibition at 5 min, 50 µM (OAT3 [1]; human, HEK293 cells stably overexpressing OAT3 (HEK-OAT3), pH 7.2, probe 6-CF (4 µM)): < 70%; inhibition at 5 min, 50 µM (OAT1 [2]): < 70%
